# Experiments:
# Assay type in all cases: cell-based, Helicobacter pylori
# [1] = system: H. pylori; test: Anti H. pylori screening by disc diffusion susceptibility assay; conditions: 100 and 200 mg/disc (so in the source), 72 h
# Method in brief: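 Clinical strains HP001, HP002 and ATCC 700392, 43504, 49503 (10^8 CFU/mL) spread on supplemented BHI agar; 5 mm discs loaded with 100 and 200 […] compound in ethanol or DMSO. Zones read after 72 h microaerophilic growth at 37 °C; scored + (10-20 mm), ++ (20-30 mm), +++ (>30 mm), Nil <10 mm.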
# [2] = system: H. pylori; test: as above; design: key: strongly active (3^+, diameter>30 mm); intermediate active (2^+, ˜20-30 mm diameter); moderately active (1^+, ˜10-20 mm diameter); not active (<10 mm diameter); conditions: two doses, majority of the strains
# Protocol: (§1) The discs were impregnated with […] of each of the compounds, dissolved either in ethanol or DMSO, and the zone of inhibition was measured after 72 h of growth under microaerophilic conditions at 37° C. Inhibition zone diameter ranging 10-20 mm was given a score of ^+, 20-30 mm as ^++ and that of >30 mm as ^+++, as obtained employing dose range of […]/disc. The detailed structural information of the molecules is provided under ‘Description of the Compounds’.
# (§2) Methods and protocols for the determination of inhibition zone diameter are as stated under Experiment 1, and that of MIC values by microbroth dilution assay as in Experiment 3. ‘Nil’ means zone of inhibition below 10 mm.
# (§3) The anti H. pylori activity of all 16 flavonoid molecules, 2 naturally isolated and 14 synthetic derivatives, was screened by disc diffusion sensitivity assay employing 2 clinical strains HP001 and HP002, and three standard strains ATCC® 700392, 43504 and 49503. A 0.5 mL inoculum (10^8 CFU/mL) for each bacterial strain tested was flooded on freshly prepared Brain Heart Infusion (BHI) agar plates supplemented with 7% FCS, 0.5% IsoVitalex and 0.0025% DENT® and the discs (5 mm diameter) containing different compounds or antibiotics (dissolved either in ethanol or DMSO) were placed on the agar surface. After incubation for 3 days in a microaerophilic atmosphere at 37° C., the diameter of the zone of inhibition was measured (Glupczynsky, 1996; McNulty et al., 2002).
# [3] = system: H. pylori; test: as above; design: key: strongly active (diameter>30 mm) and were given a score of 3^+; intermediate active (^˜20-30 mm diameter) and were given a score of 2^+; moderately active (^˜10-20 min diameter) and were given a score of 1^+; not active (>10 mm diameter); conditions: 100 and 200 μg/disc, majority of the strains
# Protocol: as §1, §2, §3
# [4] = system: H. pylori; test: Anti H. pylori spectrum (MIC) by agar dilution method; conditions: for MIC50: MIC against 50% of the strains of the panel; for MIC Range: panel of 6 clinical isolates and 4 standard strains
# Method in brief: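 Agar dilution per CLSI against six clinical isolates and four standard strains on BHI agar with 7% FCS, 0.5% IsoVitalex and DENT. Inoculum ~10^8 CFU/mL; 2-fold compound dilutions from 1.56-100; 72 h microaerophilic at 37 °C. MIC read visually as no growth, in duplicate; MIC50 covers 50% of strains.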
Compound,Inhibition zone diameter (score) ([1]; ATCC standard strain 43504),Inhibition zone diameter (score) ([1]; ATCC standard strain 49503),Inhibition zone diameter (score) ([1]; ATCC standard strain 700392),Inhibition zone diameter (score) ([1]; clinical strain HP001),Inhibition zone diameter (score) ([1]; clinical strain HP002),Activity class by inhibition zone diameter [2],Activity class by inhibition zone diameter [3],MIC50 [4],MIC Range [4]
"O=c1cc(-c2ccccc2)oc2cc(OCCCN3CCOCC3)cc(O)c12 [CHM-2, 5-Hydroxy-7-(3-morpholin-4-yl-propoxy)-2-phenyl-chromen-4-one]",Nil (‘Nil’ means zone of inhibition below 10 mm),Nil (‘Nil’ means zone of inhibition below 10 mm),Nil (‘Nil’ means zone of inhibition below 10 mm),Nil (‘Nil’ means zone of inhibition below 10 mm),Nil (‘Nil’ means zone of inhibition below 10 mm),not active,not active,–,–
"CN(C)CCCCCCOc1cc(O)c2c(=O)cc(-c3ccccc3)oc2c1 [CHN-1, 7-(6-Dimethylamino-hexyloxy)-5-hydroxy-2-phenyl-chromen-4-one]",Nil (‘Nil’ means zone of inhibition below 10 mm),Nil (‘Nil’ means zone of inhibition below 10 mm),Nil (‘Nil’ means zone of inhibition below 10 mm),Nil (‘Nil’ means zone of inhibition below 10 mm),Nil (‘Nil’ means zone of inhibition below 10 mm),not active,not active,–,–
"O=c1cc(-c2ccccc2)oc2cc(O)cc(O)c12 [Chrysin, 5,7-Dihydroxy-2-phenyl-chromen-4-one, reference compound]",Nil (‘Nil’ means zone of inhibition below 10 mm),Nil (‘Nil’ means zone of inhibition below 10 mm),Nil (‘Nil’ means zone of inhibition below 10 mm),Nil (‘Nil’ means zone of inhibition below 10 mm),Nil (‘Nil’ means zone of inhibition below 10 mm),not active,not active,much higher,much higher
"CCCCCCCCCCCCCCCCC(=O)Oc1cc2oc(-c3ccccc3)cc(=O)c2c(O)c1OC [ORC-16, Heptadecanoic acid 5-hydroxy-6-methoxy-4-oxo-2-phenyl-4H-chromen-7-yl ester]",Nil (‘Nil’ means zone of inhibition below 10 mm),Nil (‘Nil’ means zone of inhibition below 10 mm),Nil (‘Nil’ means zone of inhibition below 10 mm),Nil (‘Nil’ means zone of inhibition below 10 mm),Nil (‘Nil’ means zone of inhibition below 10 mm),not active,not active,–,–
"COc1c(O)cc2oc(-c3ccccc3)cc(=O)c2c1O [Oroxylin A, reference compound]",Nil (‘Nil’ means zone of inhibition below 10 mm),Nil (‘Nil’ means zone of inhibition below 10 mm),Nil (‘Nil’ means zone of inhibition below 10 mm),Nil (‘Nil’ means zone of inhibition below 10 mm),Nil (‘Nil’ means zone of inhibition below 10 mm),not active,not active,much higher,much higher

# From patent US9642854B2, “Flavanoid compounds and process for preparation thereof” (Council of Scientific & Industrial Research, priority 2009, dated 2017)
